Experimental data as given in the NIST ThermoML archive (doi:10.1021/acs.jced.8b01135).

Test: xn = mol fraction of the nth substance listed
Conditions: 102 kPa, Liquid; for speed of sound: Frequency=3 MHz, Single path-length method; for mass density: Vibrating tube method; for viscosity: Concentric cylinders viscometry

CCCCCCC1CCCCC1 [hexylcyclohexane] + CCCCCCCCCCCC
Conditions	mass density, 288.15 K [kg/m3]	mass density, 293.15 K [kg/m3]	mass density, 298.15 K [kg/m3]	mass density, 303.15 K [kg/m3]	speed of sound, 288.15 K [m/s]	speed of sound, 293.15 K [m/s]	speed of sound, 298.15 K [m/s]	speed of sound, 303.15 K [m/s]	viscosity, 293.15 K [mPa·s]	viscosity, 303.15 K [mPa·s]
x1 = 0.1002	–	–	–	–	–	–	–	–	1.53	1.3
x1 = 0.1009	757.85	754.24	750.61	746.99	1322.7	1303.2	1283.8	1264.6	–	–
x1 = 0.1998	763.33	759.72	756.11	752.5	1328.2	1308.8	1289.4	1270.2	–	–
x1 = 0.201	–	–	–	–	–	–	–	–	1.58	1.34
x1 = 0.3	–	–	–	–	–	–	–	–	1.64	1.38
x1 = 0.3001	768.99	765.39	761.78	758.17	1334.2	1314.7	1295.3	1276.1	–	–
x1 = 0.3998	–	–	–	–	–	–	–	–	1.7	1.43
x1 = 0.4001	774.72	771.13	767.53	763.92	1340.2	1320.7	1301.3	1282.1	–	–
x1 = 0.5002	–	–	–	–	–	–	–	–	1.76	1.48
x1 = 0.5004	780.57	776.99	773.39	769.79	1346.3	1326.9	1307.5	1288.3	–	–
x1 = 0.5996	786.46	782.88	779.29	–	1352.5	1333.2	1313.8	1294.6	–	–
x1 = 0.5999	–	–	–	–	–	–	–	–	1.83	1.54
x1 = 0.6998	–	–	–	–	–	–	–	–	1.91	1.6
x1 = 0.7005	792.54	788.97	785.38	–	1359.2	1339.8	1320.4	1301.2	–	–
x1 = 0.7996	798.63	795.06	791.48	–	1365.9	1346.5	1327.1	1307.8	–	–
x1 = 0.8001	–	–	–	–	–	–	–	–	1.99	1.66
x1 = 0.8997	804.88	801.31	797.74	–	1373	1353.4	1334	1314.7	–	–
x1 = 0.8998	–	–	–	–	–	–	–	–	2.08	1.74
x1 = 1	811.34	807.76	804.19	–	1380.4	1360.9	1341.4	1322.1	2.19	1.79
